Experimental findings from patent US11155558B2, “Dual mode of action soluble guanylate cyclase activators and phosphodiesterase inhibitors and uses thereof” (TOPADUR PHARMA AG, priority 2017, dated 2021) are described below.

Like-named read-outs stand apart in the source and are kept apart here.

Data set [1] addresses recombinant human (rh) PDE5A (Homo sapiens (Human), UniProt O76074). Briefly: Phosphodiesterase-5 activity assay (Example 110), radiometric SPA. It is filed as biochemical. On the procedure:
The inhibition of recombinant human (rh) PDE5A by test compounds is measured in a radiometric assay based on Scintillation Proximity Assay (SPA) technology. The substrate [3H]cGMP/cGMP is hydrolysed to [3H] 5′ GMP/5′ GMP contingent on the activity of rhPDE5A. The ensuing [3H] 5′ GMP/5′ GMP but not [3H] cGMP/cGMP binds to SPA yttrium silicate beads in the presence of Zn^++ stimulating the scintillant within the bead to emit light that is detected by a ß-counter. The assay is performed in a 96 well format.
The assay is done in 20 mM Tris HCl pH 7.4, 5 mM MgCl2, […] cGMP/[3H] cGMP (about 60000 dpm/well) substrate with rhPDE5A1 (GST tagged, SIGMA E9034) added to an amount not exceeding 20% cGMP hydrolysis within 20 min in Tris 20 mM pH 7.4 supplemented with 0.01% bovine serum albumin (BSA) in the presence of test compounds or vehicle (0.1% DMSO). The final assay volume amounts to 100 μl and the reaction is run for 20 min at 37° C.
The hydrolysis of [3H] cGMP/cGMP by rhPDE5A is terminated by adding SPA beads at 50 µl/well (Perkin Elmer, RPNQ0024), pre-diluted in water as per manufacturer's instructions and supplemented with 3-isobutyl-1-methylxanthine (1 mM). Beads are allowed to sediment for at least 30 min before measurement in a Wallac Microbeta 2 (Perkin Elmer).
In general, test compounds are added at seven different concentrations from […] in log steps. […] Results (IC50) are given as the mean from at least two independent experiments each performed in triplicate.

Data set [2] in a line: Measurements of human plasma protein binding. In kind it is in vitro ADME. The following applies: for recovery: human. On the procedure:
An aliquot of 200 μL of human plasma containing test compound was spiked into donor well (red chamber) of the insert. 350 μL of PBS was spiked into receiver well (white chamber) of the insert.
The samples were matrix equilibrated with opposite matrix (25 μL of plasma/buffer sample was matched with 25 μL of blank buffer/plasma). Matrix matched samples were precipitated with 200 μL of acetonitrile containing internal standard. Samples were vortexed at 1000 rpm for 5 min and centrifuged at 4000 rpm for 10 min. Supernatant was separated, diluted 2 fold with water and analysed in LC-MS/MS. TO control samples were processed immediately after the preparation of plasma working stock solutions. These samples serves as a measure for calculating the percentage recovery of test compounds.

Data set [3] has as its target PDE5 enzyme isolated from human platelets (Homo sapiens (Human), UniProt O76074). Put plainly: PDE5 assay (Example 109), formation of 5′GMP from cGMP, SPA.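 Further: tritiated 5′GMP counted by scintillation after SPA bead capture, enzyme reaction run 60 min at 22 °C, basal control is the mixture without enzyme.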
Procedure: Evaluation of the effects of compounds of the present invention on the activity of the human phosphodiesterase-5 quantified by measuring the formation of 5′GMP from cGMP using PDE5 enzyme isolated from human platelets.
Thereafter, the reaction is initiated by addition of the enzyme and the mixture is incubated for 60 min at 22° C.
For basal control measurements, the enzyme is omitted from the reaction mixture. Following incubation SPA beads are added. After 20 min at 22° C. under shaking, the amount of [3H]5′GMP is quantified with a scintillation counter (Topcount, Packard).
The standard inhibitory reference compound is dipyridamole, which is tested in each experiment at several concentrations to obtain an inhibition curve from which its IC50 value is calculated.

Turning to `CCCOc1ccc(S(=O)(=O)N2CCC([C@@H](CO[N+](=O)[O-])O[N+](=O)[O-])CC2)cc1-c1nc2c(CCC)cn(C)c2c(=O)[nH]1` [Compound 3h, (S)-1-(1-((3-(5-methyl-4-oxo-7-propyl-4,5-dihydro-3H-pyrrolo[3,2-d]pyrimidin-2-yl)-4-propoxyphenyl)sulfonyl)piperidin-4-yl)ethane-1,2-diyl dinitrate], the half-maximal inhibitory concentration (IC50) – broadly, the point on the concentration scale where inhibition reaches its midpoint – in data set [1] came to 3.7 nM. The same measure, in the same setting: as for `CCCOc1ccc(S(=O)(=O)N2CCC(CO[N+](=O)[O-])CC2)cc1-c1nc2c(CCC)cn(C)c2c(=O)[nH]1` [Compound 3k, (1-((3-(5-methyl-4-oxo-7-propyl-4,5-dihydro-3H-pyrrolo[3,2-d]pyrimidin-2-yl)-4-propoxyphenyl)sulfonyl)piperidin-4-yl)methyl nitrate], the figure is 15 nM; as for `CCCOc1ccc(S(=O)(=O)N2CCC([C@@H](CO[N+](=O)[O-])O[N+](=O)[O-])CC2)cc1-c1nc2c(CCC)c(/C=N/O)n(C)c2c(=O)[nH]1` [Compound 3p, (S,E)-1-(1-((3-(6-((hydroxyimino)methyl)-5-methyl-4-oxo-7-propyl-4,5-dihydro-3H-pyrrolo[3,2-d]pyrimidin-2-yl)-4-propoxyphenyl)sulfonyl)piperidin-4-yl)ethane-1,2-diyl dinitrate], 12 nM. On to `CCCOc1ccc(S(=O)(=O)N2CCC([C@H](CO[N+](=O)[O-])O[N+](=O)[O-])CC2)cc1-c1nc2c(CCC)cn(CC)c2c(=O)[nH]1` [Compound 1k, (R)-1-(1-((3-(5-ethyl-4-oxo-7-propyl-4,5-dihydro-3H-pyrrolo[3,2-d]pyrimidin-2-yl)-4-propoxyphenyl)sulfonyl)piperidin-4-yl)ethane-1,2-diyl dinitrate], for which the IC50 in data set [1] is 3.5 nM. As for `CCCOc1ccc(S(=O)(=O)N2CCC([C@H](CO[N+](=O)[O-])O[N+](=O)[O-])CC2)cc1-c1nc2c(CCC)cn(C)c2c(=O)[nH]1` [Compound 3g, (R)-1-(1-((3-(5-methyl-4-oxo-7-propyl-4,5-dihydro-3H-pyrrolo[3,2-d]pyrimidin-2-yl)-4-propoxyphenyl)sulfonyl)piperidin-4-yl)ethane-1,2-diyl dinitrate], the IC50 in data set [1] amounted to 23 nM. On the same count and under the same terms, as for `CCCOc1ccc(S(=O)(=O)N2CCN(CCCO[N+](=O)[O-])CC2)cc1-c1nc2c(CCC)c(/C=N/O)n(C)c2c(=O)[nH]1` [Compound 3f, (E)-3-(4-((3-(6-((hydroxyimino)methyl)-5-methyl-4-oxo-7-propyl-4,5-dihydro-3H-pyrrolo[3,2-d]pyrimidin-2-yl)-4-propoxyphenyl)sulfonyl)piperazin-1-yl)propyl nitrate], the figure is 42 nM.

With `CCCOc1ccc(S(=O)(=O)N2CCC([C@@H](CO[N+](=O)[O-])O[N+](=O)[O-])CC2)cc1-c1nc2c(CCC)cn(CC)c2c(=O)[nH]1` [Compound 1l, (S)-1-(1-((3-(5-ethyl-4-oxo-7-propyl-4,5-dihydro-3H-pyrrolo[3,2-d]pyrimidin-2-yl)-4-propoxyphenyl)sulfonyl)piperidin-4-yl)ethane-1,2-diyl dinitrate], the IC50 in data set [1] is 3.2 nM. The same measure, in the same setting: with `CCCOc1ccc(S(=O)(=O)N2CCC([C@@H](O)CO[N+](=O)[O-])CC2)cc1-c1nc2c(CCC)cn(C)c2c(=O)[nH]1` [Compound 3l, (R)-2-hydroxy-2-(1-((3-(5-methyl-4-oxo-7-propyl-4,5-dihydro-3H-pyrrolo[3,2-d]pyrimidin-2-yl)-4-propoxyphenyl)sulfonyl)piperidin-4-yl)ethyl nitrate] the figure was 2 nM. As for `CCCOc1ccc(S(=O)(=O)N2CCC(CCO[N+](=O)[O-])(CCO[N+](=O)[O-])CC2)cc1-c1nc2c(CCC)cn(CC)c2c(=O)[nH]1` [Compound 1n, (1-((3-(5-ethyl-4-oxo-7-propyl-4,5-dihydro-3H-pyrrolo[3,2-d]pyrimidin-2-yl)-4-propoxyphenyl)sulfonyl)piperidine-4,4-diyl)bis(ethane-2,1-diyl) dinitrate], in data set [1], the half-maximal inhibitory concentration (IC50) amounted to 2.7 nM.

On to `CCCOc1ccc(S(=O)(=O)N2CCC(CO[N+](=O)[O-])(CO[N+](=O)[O-])CC2)cc1-c1nc2c(CCC)cn(C)c2c(=O)[nH]1` [Compound 3i, (1-((3-(5-methyl-4-oxo-7-propyl-4,5-dihydro-3H-pyrrolo[3,2-d]pyrimidin-2-yl)-4-propoxyphenyl)sulfonyl)piperidine-4,4-diyl)bis(methylene) dinitrate], for which the half-inhibitory concentration (IC50) in data set [1] turned out to be 14 nM.

In the case of `CCCOc1ccc(S(=O)(=O)N2C[C@H](CCO[N+](=O)[O-])N(C)[C@@H](CCO[N+](=O)[O-])C2)cc1-c1nc2c(CCC)cn(CC)c2c(=O)[nH]1` [Compound 1o, ((2S,6S)-4-((3-(5-ethyl-4-oxo-7-propyl-4,5-dihydro-3H-pyrrolo[3,2-d]pyrimidin-2-yl)-4-propoxyphenyl)sulfonyl)-1-methylpiperazine-2,6-diyl)bis(ethane-2,1-diyl) dinitrate], the IC50 in data set [1] was 7.1 nM. For `CCCOc1ccc(S(=O)(=O)N2CCC(CCO)CC2)cc1-c1nc2c(CCC)cn(CC)c2c(=O)[nH]1` [Compound 5, 5-ethyl-2-(5-((4-(2-hydroxyethyl)piperidin-1-yl)sulfonyl)-2-propoxyphenyl)-7-propyl-3,5-dihydro-4H-pyrrolo[3,2-d]pyrimidin-4-one], in data set [2], the “% Bound in Plasma” value stood at 99.87%, the free fraction (fraction unbound) (commonly free concentration divided by total concentration) stood at 0.0013 and the recovery turned out to be 102%. Besides, the IC50 in data set [3] worked out at 0.29 nM. The “PDE5 inhibition (in words)” value in data set [3] (human cGMP-specific PDE5, refers to Table 1) is given as “much more potent PDE5 inhibitor”. Further, the % inhibition – broadly, the percentage by which the read-out fell short of the control – at 5.0E−09 M in data set [3] (percent inhibition of control enzyme activity at 5.0E−09 M, assay of Example 109) worked out at 74.4%.

As to `CCCOc1ccc(S(=O)(=O)N2C[C@@H](CCO[N+](=O)[O-])N(C)[C@@H](CCO[N+](=O)[O-])C2)cc1-c1nc2c(CCC)cn(CC)c2c(=O)[nH]1` [Compound 1m, ((2S,6R)-4-((3-(5-ethyl-4-oxo-7-propyl-4,5-dihydro-3H-pyrrolo[3,2-d]pyrimidin-2-yl)-4-propoxyphenyl)sulfonyl)-1-methylpiperazine-2,6-diyl)bis(ethane-2,1-diyl) dinitrate], the IC50 in data set [1] was determined as 8.6 nM.

For `CCCc1cn(C)c2c(=O)[nH]c(-c3cc(S(=O)(=O)N4CCC(CCO)CC4)ccc3OCC)nc12` [Compound 14, 2-(2-ethoxy-5-((4-(2-hydroxyethyl)piperidin-1-yl)sulfonyl)phenyl)-5-methyl-7-propyl-3,5-dihydro-4H-pyrrolo[3,2-d]pyrimidin-4-one], in data set [2], the “% Bound in Plasma” value amounted to 99.43%, the fraction unbound came out at 0.0057 and the recovery came out at 98.9%. The compound also had an IC50 in data set [3] of 0.3 nM. For the compound `CCCc1c(/C=N/O)n(C)c2c(=O)[nH]c(-c3cc(S(=O)(=O)N4CCN(CCO[N+](=O)[O-])CC4)ccc3OCC)nc12` [Compound 2g, (E)-2-(4-((4-ethoxy-3-(6-((hydroxyimino)methyl)-5-methyl-4-oxo-7-propyl-4,5-dihydro-3H-pyrrolo[3,2-d]pyrimidin-2-yl)phenyl)sulfonyl)piperazin-1-yl)ethyl nitrate], in data set [1], the 50% inhibitory concentration (IC50) amounted to 31 nM. For `CCCOc1ccc(S(=O)(=O)N2CCN(CCO[N+](=O)[O-])CC2)cc1-c1nc2c(CCC)c(/C=N/O)n(C)c2c(=O)[nH]1` [Compound 3e, (E)-2-(4-((3-(6-((hydroxyimino)methyl)-5-methyl-4-oxo-7-propyl-4,5-dihydro-3H-pyrrolo[3,2-d]pyrimidin-2-yl)-4-propoxyphenyl)sulfonyl)piperazin-1-yl)ethyl nitrate], in data set [1], the IC50 amounted to 12 nM.

As to `CCCOc1ccc(S(=O)(=O)N2CCN(CCCO[N+](=O)[O-])CC2)cc1-c1nc2c(CCC)cn(C)c2c(=O)[nH]1` [Compound 3d, 3-(4-((3-(5-methyl-4-oxo-7-propyl-4,5-dihydro-3H-pyrrolo[3,2-d]pyrimidin-2-yl)-4-propoxyphenyl)sulfonyl)piperazin-1-yl)propyl nitrate], in data set [1], the IC50 was 9 nM.

With `CCCOc1ccc(S(=O)(=O)N2CCC([C@@H](O)CO[N+](=O)[O-])CC2)cc1-c1nc2c(CCC)c(/C=N/O)n(C)c2c(=O)[nH]1` [Compound 3q, (R,E)-2-hydroxy-2-(1-((3-(6-((hydroxyimino)methyl)-5-methyl-4-oxo-7-propyl-4,5-dihydro-3H-pyrrolo[3,2-d]pyrimidin-2-yl)-4-propoxyphenyl)sulfonyl)piperidin-4-yl)ethyl nitrate], in data set [1] (asterisk: assay described in Example 110, rhPDE5A1, read-out: IC50), the IC50 came out at 3.3 nM.
